In article PMC6356581, “Fragment-Based Structural Optimization of a Natural Product Itampolin A as a p38α Inhibitor for Lung Cancer” (Marine Drugs, 2019):

molecular target: MAPK14/p38α (Homo sapiens, UniProt Q16539); assay: p38α MAP kinase activity based on the rate of phosphorylation of ATF-2 (TR-FRET); type: biochemical; settings: 90 μM ATP, 0.4 μM GFP-ATF2 (19–96), 1 ng/mL MAPK14/p38α, 1 h RT; read-out: p38α MAP kinase inhibitory activity IC50
Procedure: 4.3. The p38α MAP Kinase Activity Based on the Rate of Phosphorylation of ATF-2
Kinase reaction buffer composition: 50 mM HEPES (pH 7.5), 10 mM MgCl2, 0.01% BRIJ-35 and 1 mM EGTA. Titration MAPK14/p38α at 90 μM ATP: Prepare MAPK14/p38α in kinase buffer at a concentration of 500 ng/mL. Perform two-fold serial dilution using kinase buffer from 500 ng/mL, 16 dose points. Add 5 μL of the serially diluted MAPK14/p38α into the 384-well plate in triplicate. Prepare 1 mL of 0.8 μM substrate GFP-ATF2 (19–96) and 180 μMATP in kinase reaction buffer. The reaction was carried out by adding 5 μL of the substrate GFP-ATF2 (19–96) and ATP solution into each well of the assay plate. Seal the assay plate and incubate for 1 h at room temperature (RT).
An amount of 4 μL MAPK14/p38α was added to each well of the 384-well assay plate. Incubate for 15 min at RT. Finally, 4 μL substrate GFP-ATF2 (19–96) and ATP in kinase reaction buffer were added to start the reaction. The final concentrations of MAPK14/p38α, Substrate, and ATP were 1 ng/mL, 0.4 μM, and 90 μM, respectively. Incubate for 1 h at RT. Add 10 μL/well of antibody solution. The final concentrations of EDTA and antibody were 10 mM and 2 nM respectively. Incubate for 30 min at RT.

MAPK14/p38α, sequence (Q16539 whole entry): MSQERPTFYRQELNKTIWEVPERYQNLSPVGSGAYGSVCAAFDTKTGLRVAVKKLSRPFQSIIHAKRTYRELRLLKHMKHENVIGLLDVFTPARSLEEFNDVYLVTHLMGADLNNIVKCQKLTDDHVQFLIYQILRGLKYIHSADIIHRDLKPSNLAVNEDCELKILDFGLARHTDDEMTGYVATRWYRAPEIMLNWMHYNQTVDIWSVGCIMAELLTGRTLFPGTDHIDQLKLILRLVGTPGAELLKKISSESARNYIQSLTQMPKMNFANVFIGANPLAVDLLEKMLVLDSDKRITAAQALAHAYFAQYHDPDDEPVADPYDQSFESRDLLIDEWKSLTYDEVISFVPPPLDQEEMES

Compared with `CCOc1ccc(CC(=O)N[C@H](Cc2cc(Br)c(OC)c(Br)c2)C(=O)NCCc2cc(Br)c(O)c(Br)c2)cc1` [Compound 4b], `CCCCOc1ccc(CC(=O)N[C@H](Cc2cc(Br)c(OC)c(Br)c2)C(=O)NCCc2cc(Br)c(O)c(Br)c2)cc1` [Compound 4d] is 1.6-fold higher in IC50: 492 ± 46.2 nM for the first, 806 ± 139 nM for the second. The first is the more potent here.

First: COc1c(Br)cc(C[C@@H](NC(=O)Cc2cccc(Cl)c2)C(=O)NCCc2cc(Br)c(O)c(Br)c2)cc1Br [Compound 4i]
Second: COc1c(Br)cc(C[C@@H](NC(=O)Nc2cccc(Cl)c2)C(=O)NCCc2cc(Br)c(O)c(Br)c2)cc1Br [Compound 5i]
The IC50 of the first is 1.8-fold higher: 91 ± 11.1 nM for the first, 51.3 ± 4.5 nM for the second. The second is the more potent here.

`COc1c(Br)cc(C[C@@H](NC(=O)Cc2ccc(Br)cc2)C(=O)NCCc2cc(Br)c(O)c(Br)c2)cc1Br` [Compound 4k] and `COc1c(Br)cc(C[C@@H](NC(=O)Cc2ccc(F)cc2)C(=O)NCCc2cc(Br)c(O)c(Br)c2)cc1Br` [Compound 4l] are within 1.5-fold of each other in IC50: 832 ± 12.1 nM for the first, 618 ± 87.7 nM for the second.

`COc1c(Br)cc(C[C@@H](NC(=O)Cc2ccccc2F)C(=O)NCCc2cc(Br)c(O)c(Br)c2)cc1Br` [Compound 4m] and `COc1c(Br)cc(C[C@@H](NC(=O)Nc2ccccc2F)C(=O)NCCc2cc(Br)c(O)c(Br)c2)cc1Br` [Compound 5m] are within error of each other in IC50: 78.6 ± 59.2 nM for the first, 71.4 ± 19.6 nM for the second.

`COc1c(Br)cc(C[C@@H](NC(=O)Cc2ccc(OCCCN3CCOCC3)cc2)C(=O)NCCc2cc(Br)c(O)c(Br)c2)cc1Br` [Compound 4o] and `COc1c(Br)cc(CC(NC(=O)Nc2ccc(OCCCN3CCOCC3)cc2)C(=O)NCCc2cc(Br)c(O)c(Br)c2)cc1Br` (stereo not shown) [Compound 5o] are within error of each other in IC50: 138 ± 13.6 nM for the first, 134 ± 26.3 nM for the second.

First: COc1ccc(NC(=O)N[C@H](Cc2cc(Br)c(OC)c(Br)c2)C(=O)NCCc2cc(Br)c(O)c(Br)c2)cc1 [Compound 5a]
Second: CCOc1ccc(NC(=O)N[C@H](Cc2cc(Br)c(OC)c(Br)c2)C(=O)NCCc2cc(Br)c(O)c(Br)c2)cc1 [Compound 5b]
The IC50 of the first is 3.1-fold lower: 112 ± 12 nM for the first, 346 ± 18.4 nM for the second.

First: CCCOc1ccc(NC(=O)N[C@H](Cc2cc(Br)c(OC)c(Br)c2)C(=O)NCCc2cc(Br)c(O)c(Br)c2)cc1 [Compound 5c]
Second: CCCCOc1ccc(NC(=O)N[C@H](Cc2cc(Br)c(OC)c(Br)c2)C(=O)NCCc2cc(Br)c(O)c(Br)c2)cc1 [Compound 5d]
The IC50 of the first is 4.1-fold lower: 167 ± 23.9 nM for the first, 691 ± 38.4 nM for the second.

Compared with `COc1c(Br)cc(C[C@@H](NC(=O)Nc2ccccc2Cl)C(=O)NCCc2cc(Br)c(O)c(Br)c2)cc1Br` [Compound 5j], `COc1c(Br)cc(C[C@@H](NC(=O)Nc2ccc(Br)cc2)C(=O)NCCc2cc(Br)c(O)c(Br)c2)cc1Br` [Compound 5k] is 5-fold lower in IC50: 448 ± 64.1 nM for the first, 90.3 ± 2.7 nM for the second. The second is the more potent here.

Going from `COc1c(Br)cc(C[C@@H](NC(=O)Nc2ccc(F)cc2)C(=O)NCCc2cc(Br)c(O)c(Br)c2)cc1Br` [Compound 5l] to `COc1c(Br)cc(C[C@@H](NC(=O)Nc2ccc(C)cc2)C(=O)NCCc2cc(Br)c(O)c(Br)c2)cc1Br` [Compound 5n], the IC50 rises from 110 ± 18.8 nM to 279 ± 28.9 nM (2.5-fold). The first is the more potent here.

`COc1ccc(NC(=O)NCCc2cc(Br)c(OC)c(Br)c2)cc1` [Compound 6a] and `CCOc1ccc(NC(=O)NCCc2cc(Br)c(OC)c(Br)c2)cc1` [Compound 6b] are within 1.5-fold of each other in IC50: 263 ± 3.3 nM for the first, 221 ± 4.2 nM for the second.

Compared with `CCCOc1ccc(NC(=O)NCCc2cc(Br)c(OC)c(Br)c2)cc1` [Compound 6c], `COCCOc1ccc(NC(=O)NCCc2cc(Br)c(OC)c(Br)c2)cc1` [Compound 6g] is 60-fold lower in IC50: 701 ± 7.4 nM for the first, 11.7 ± 3 nM for the second. The second is the more potent here.

Compared with `CCC(C)Oc1ccc(NC(=O)NCCc2cc(Br)c(OC)c(Br)c2)cc1` (stereo not shown) [Compound 6e], `COc1c(Br)cc(CCNC(=O)Nc2ccc(OC(C)C)cc2)cc1Br` [Compound 6h] is 2.8-fold lower in IC50: 920.3 ± 6.1 nM for the first, 329 ± 44.2 nM for the second.

Compared with `COc1c(Br)cc(CCNC(=O)Nc2cccc(Cl)c2)cc1Br` [Compound 6i], `COc1c(Br)cc(CCNC(=O)Nc2ccccc2Cl)cc1Br` [Compound 6j] is 4.1-fold higher in IC50: 17.5 ± 2.4 nM for the first, 71.2 ± 4.5 nM for the second. The first is the more potent here.

Going from `COc1c(Br)cc(CCNC(=O)Nc2ccc(Br)cc2)cc1Br` [Compound 6k] to `COc1c(Br)cc(CCNC(=O)Nc2ccc(F)cc2)cc1Br` [Compound 6l], the IC50 falls from 169 ± 2.6 nM to 21.5 ± 4.6 nM (7.9-fold). The second is the more potent here.

First: COc1c(Br)cc(CCNC(=O)Nc2ccccc2F)cc1Br [Compound 6m]
Second: COc1c(Br)cc(CCNC(=O)Nc2ccc(C)cc2)cc1Br [Compound 6n]
The IC50 of the first is 22-fold lower: 13.6 ± 3 nM for the first, 300 ± 11.7 nM for the second.

Work on `COc1c(Br)cc(CCNC(=O)Nc2ccc(OCCCN3CCOCC3)cc2)cc1Br` [Compound 6o] yielded an IC50 of 7.9 ± 1.7 nM.

system: A549 cells; assay: MTT cell proliferation inhibition assay; type: cell-based; settings: Homo sapiens; A549, 48 h incubation
Procedure: 4.4. MTT Assay The A549 cell lines were cultured using DMEM and RPMI, respectively, in standard humidified incubation conditions at 37 °C in 5% CO2. Then, the cancer cells (1000/well) were placed on 96-well plates in triplicate. After 24 h incubation, cells were treated with a series of concentrations of the brominated tyrosine derivatives (1, 10, 20, 80 μmol/L). The positive control contained the same concentrations of BIRB-796, and the negative control received the same volume of DMSO. After 48h incubation, cells were stained with 5% MTT, and the optical density was recorded at an absorbance wavelength of 570 nm.

With `COc1c(Br)cc(CCNC(=O)Nc2ccc(OCCCN3CCOCC3)cc2)cc1Br` [Compound 6o] the IC50 was 660 nM.

system: non-small cell lung cancer; assay: not given; design: method as in doi:10.2174/1570179414666170215092631; settings: previous study; cited from earlier work

In the case of `COc1c(Br)cc(C[C@@H](NC(=O)Cc2ccc(OCCCNC(C)=O)cc2)C(=O)NCCc2cc(Br)c(O)c(Br)c2)cc1Br` [Itampolin A], the “antitumor activity against non-small cell lung cancer” value is listed as “potent concentration-dependent antitumor activity”.

system: non-small cell lung A549 cells; assay: not given; design: method as in doi:10.2174/1570179414666170215092631; settings: previous study; cited from earlier work

For `COc1c(Br)cc(C[C@@H](NC(=O)Cc2ccc(OCCCNC(C)=O)cc2)C(=O)NCCc2cc(Br)c(O)c(Br)c2)cc1Br` [(−)-itampolin A], the “inhibitory activity against non-small cell lung A549 cells” value is given as “significant inhibitory activity”.
